These results are taken from US10342818B2, “Dual-action compounds targeting adenosine A2A receptor and adenosine transporter for prevention and treatment of neurodegenerative diseases” (Academia Sinica, priority 2009, dated 2019).

Data set [1] deals with T1, equilibrative nucleoside transporter 1 (ENT1) (Cavia porcellus, UniProt H0V4R7).
T1 construct: Membrane fractions collected from the cerebral cortex of Duncan Hartley derived guinea pigs; tissue MDS Pharma Services Taiwan (assay provider); host or cells: guinea pig cerebral cortex membranes
T1 sequence (H0V4R7 1-461): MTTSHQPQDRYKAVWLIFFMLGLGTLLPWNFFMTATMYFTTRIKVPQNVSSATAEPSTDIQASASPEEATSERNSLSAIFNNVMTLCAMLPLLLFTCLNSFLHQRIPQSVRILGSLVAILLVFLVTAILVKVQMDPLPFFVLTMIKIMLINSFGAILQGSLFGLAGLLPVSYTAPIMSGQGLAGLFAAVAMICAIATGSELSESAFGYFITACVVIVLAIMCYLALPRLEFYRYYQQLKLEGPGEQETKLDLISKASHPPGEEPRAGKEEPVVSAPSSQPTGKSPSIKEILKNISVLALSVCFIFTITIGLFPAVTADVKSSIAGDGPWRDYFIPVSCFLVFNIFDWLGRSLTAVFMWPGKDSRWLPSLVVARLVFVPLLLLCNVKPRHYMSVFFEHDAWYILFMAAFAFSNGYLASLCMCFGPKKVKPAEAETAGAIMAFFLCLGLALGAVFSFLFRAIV
As to the kind of experiment: Radioligand binding assay for adenosine transporters (3H-NBTI, cerebral cortex membranes). The arrangement: species or system guinea pig. The note with it: for Ki: guinea pig equilibrium transporter 1, cerebral cortex membranes, 3H-NBTI 0.5 nM; for Binding with / activity against ENT1, result in words: radioligand binding. The source says:
The pharmacological properties of the prepared adenosine analogues were characterized by MDS Pharma Services using radioligand binding assays. […] Except for 11 and 15, the adenosine derivatives having modification at the C-5′ position appeared to deteriorate their binding with A2AR, though they still maintained high affinity with ENT1.

A further data set deals with human A2A receptor (Homo sapiens, UniProt P29274). In words: Radioligand binding assay of the A2A receptor (3H-CGS21680, MDS Pharma Services). The note with it: for Binding with A2AR, result in words: radioligand binding.
Data set [2] concerns PC12 cells. The note with it: compound isolated from Gastrodia elata, earlier report; cited from earlier work.
The subject of data set [3] is PC12 cells. In words: MTT metabolism assay, rescue of serum-deprived PC12 cells from apoptosis. It is filed as cell-based. The settings on record: 0.01 μM, 24 h. An excerpt:
Cell viability was monitored by the MTT assay, and is expressed as a percentage of the MTT activity measured in the serum-containing group. […] Collectively, the dual function of these compounds in activation of adenosine receptor and in inhibition of adenosine transporter might synergistically increase the effective concentration of adenosine, especially when these two proteins are in proximity.
PC12 cells purchased from ATCC (Manassas, Va., USA) were maintained in Dulbecco's modified Eagle's medium (DMEM) supplemented with 10% horse serum and 5% fetal bovine serum and incubated in a CO2 incubator (5%) at 37° C. Survival was assessed by the 3-(4,5-dimethylthiazol-2-yl)-2,5-diphenyltetrazolium bromide (MTT) metabolism assay as described elsewhere.^49,50 In brief, cells grown on 150-mm plates were washed three times with PBS and resuspended in DMEM. Suspended cells (1×10^4 cells) were plated on 96-well plates and treated with or without the indicated reagent. After incubation for 24 h, MTT (0.5 mg/mL) was added to the medium and incubated for 3 h. After discarding the medium, DMSO (100 μL) was then applied to the well to dissolve the formazan crystals derived from the mitochondrial cleavage of the tetrazolium ring by live cells. The absorbance at 570/630 nm in each well was measured on a micro-enzyme-linked immunosorbent assay (ELISA) reader.

SMILES strings stand for the structures. Entries after “also recorded” stand apart in the source; their conditions may differ. Like-named read-outs stand apart in the source and are kept apart here.

Sequence of human A2A receptor (P29274 whole entry): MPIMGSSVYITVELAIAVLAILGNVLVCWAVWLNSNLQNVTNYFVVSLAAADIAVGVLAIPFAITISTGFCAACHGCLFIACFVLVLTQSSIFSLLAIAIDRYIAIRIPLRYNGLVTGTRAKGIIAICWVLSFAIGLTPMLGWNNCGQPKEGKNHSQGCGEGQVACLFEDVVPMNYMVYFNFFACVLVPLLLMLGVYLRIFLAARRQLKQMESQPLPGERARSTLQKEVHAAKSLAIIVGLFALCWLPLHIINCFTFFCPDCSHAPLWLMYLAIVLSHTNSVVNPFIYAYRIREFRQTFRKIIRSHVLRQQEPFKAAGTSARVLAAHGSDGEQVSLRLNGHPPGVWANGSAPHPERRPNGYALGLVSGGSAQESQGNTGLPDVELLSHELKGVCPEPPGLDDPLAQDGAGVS
Experimental for human A2A receptor: Radioligand binding assays were performed by MDS Pharma Services Taiwan (Taipei, Taiwan) using standard binding protocols. For the binding assay of the A2A receptor,^46 membrane proteins collected from HEK293 cells overexpressing the human A2A receptor were incubated in reaction buffer [50 mM Tris-HCl (pH 7.4), 10 mM MgCl2, 1 mM EDTA, and 2 U/mL adenosine deaminase] containing ^3H-CGS21680 (50 nM) for 90 min at 25° C. Nonspecific binding was assessed in the presence of 50 μM adenosine-5′-N-ethylcarboxamide (NECA).

Regarding `CC1(C)O[C@@H]2[C@H](O1)[C@@H](CO)O[C@H]2n1cnc2c(NCc3ccc(O)cc3)ncnc21` [Compound 1-acetonide, 1-acetonide], the inhibition constant Ki (in data set [1]; at human A2A receptor) was over 100 µM throughout.

As for `COc1ccc(CNc2ncnc3c2ncn3[C@@H]2O[C@H](CCl)[C@@H](O)[C@H]2O)cc1` [Compound 7], the inhibitory constant (Ki) in data set [1] was 2.98 µM; on human A2A receptor, over 100 µM.

As for `COc1ccc(CNc2ncnc3c2ncn3[C@@H]2O[C@H](CO)[C@@H](O)[C@H]2O)cc1` [Compound 3, N^6-(4-methoxybenzyl)adenosine], the Ki in data set [1] was determined as 0.318 µM; at human A2A receptor it was 30.1 µM.

On to `CCCCc1cn(C[C@H]2O[C@@H](n3cnc4c(NCc5ccc(OC)cc5)ncnc43)[C@H](O)[C@@H]2O)nn1` [Compound 12], for which the inhibition constant (Ki) in data set [1] was 0.511 µM; on human A2A receptor, over 100 µM.

`COc1ccc(CNc2ncnc3c2ncn3[C@@H]2O[C@H](CN=[N+]=[N-])[C@H](O)C2O)cc1` (some centres unmarked) [Compound 8] showed a Ki in data set [1] of 0.581 µM.

In data set [1], `O=[N+]([O-])c1ccc(CSc2ncnc3c2ncn3[C@@H]2O[C@H](CO)[C@@H](O)[C@H]2O)cc1` [NBTI, S-(4-nitrobenzyl)-6-thioinosine, reference compound] registered a Ki of 0.00029 µM. Further, on human A2A receptor, the Ki is over 10 µM and the “Binding with A2AR, result in words” value is recorded as “no binding ability with A2AR”.

Consider `CCNC(=O)C1OC(n2cnc3c(N)nc(NCCc4ccc(CCC(=O)O)cc4)nc32)C(O)C1O` (centres unmarked) [CGS, 6-amino-9-(5-ethylcarbamoyl-3,4-dihydroxy-oxolan-2-yl)-2-{2-[4-(2-carboxyethyl)phenyl]ethylamino}purine, reference compound], for which the “Binding with / activity against ENT1, result in words” value (shortened to “Binding with / activity against ENT1”) in data set [1] is “lack the activity against ENT1; also recorded: no inhibitory activity toward hENT1”.

For the compound `COc1ccc(CNc2ncnc3c2ncn3[C@@H]2O[C@H](CNC(C)=O)[C@@H](O)[C@H]2O)cc1` [Compound 9, 5′-Acetamido-5′-deoxy-N^6-(4-methoxybenzyl)adenosine], the melting point is 121.1 to 121.6 °C. For the same compound, the affinity in data set [1], expressed as Ki, was 1.43 µM. Besides, the Ki on human A2A receptor was over 100 µM.

Regarding `COc1ccc(CNc2ncnc3c2ncn3C2OC(c3nnn[nH]3)C(O)C2O)cc1` (centres unmarked) [Compound 16, 2-[6-(4-Methoxybenzylamino)-purin-9-yl]-5-(1H-tetrazol-5-yl)-tetrahydrofuran-3,4-diol], the melting point is 210 to 210.6 °C. In data set [1], the Ki was found to be 1.17 µM. In addition, the Ki at human A2A receptor was over 100 µM.

In turn, `CCNC(=O)C1OC(n2cnc3c(NCc4ccc(O)cc4)ncnc32)C(O)C1O` (centres unmarked) [Compound 15, 3,4-Dihydroxy-5-[6-(4-hydroxybenzylamino)-purin-9-yl]-tetrahydrofuran-2-carboxylic Acid Ethylamide] displayed a melting point of 179.7 to 180.5 °C. In addition, the Ki in data set [1] was over 10 µM. In addition, at human A2A receptor, the inhibition constant Ki amounted to 20.3 µM.

In the case of `CCCCCCc1cn(C[C@H]2O[C@@H](n3cnc4c(NCc5ccc(OC)cc5)ncnc43)[C@H](O)[C@@H]2O)nn1` [Compound 13], the Ki was 0.052 µM in data set [1] and over 100 µM at human A2A receptor.

On to `COc1ccc(CNc2ncnc3c2ncn3[C@@H]2O[C@H](Cn3cc(C)nn3)[C@@H](O)[C@H]2O)cc1` [Compound 11, 5′-Deoxy-5′-(4-methyl-1,2,3-triazol-1-yl)-N^6-(4-methoxybenzyl)adenosine], for which the melting point was 183 to 183.2 °C. The compound further showed a Ki in data set [1] of 0.96 µM. On human A2A receptor, this compound registered a Ki of 41.8 µM.

As to `COc1ccc(CNc2ncnc3c2ncn3[C@@H]2O[C@H](CNS(=O)(=O)c3ccc(C)cc3)[C@@H](O)[C@H]2O)cc1` [Compound 10], the inhibition constant Ki is 0.2 µM in data set [1] and over 100 µM at human A2A receptor.

Turning to `COc1ccc(CNc2ncnc3c2ncn3[C@@H]2O[C@H](Cn3cc(Cc4ccccc4)nn3)[C@@H](O)[C@H]2O)cc1` [Compound 14], the values for the Ki (in data set [1]; on human A2A receptor) were 0.116 µM and over 100 µM, respectively.

As to `OC[C@H]1O[C@@H](n2cnc3c(NCc4ccc(O)cc4)ncnc32)[C@H](O)[C@@H]1O` [Compound 1, N^6-(4-Hydroxybenzyl)adenosine], in the data set with PC12 cells [2], the “Prevention of apoptosis of serum-deprived PC12 cells (previously reported)” value was “prevented apoptosis of serum-deprived PC12 cells”. For the same compound, in data set [1], the Ki was 0.538 µM and the “Binding with / activity against ENT1” value is “sub-micromolar range”. Moreover, on human A2A receptor, the “Binding with A2AR, result in words” value was “low micromolar”. Also, the Ki on human A2A receptor (read-out: Ki A2A-R, human adenosine A2A receptor, HEK293 membranes, 3H-CGS21680 50 nM) amounted to 2.62 µM. The “Rescue of PC12 cells from apoptosis evoked by serum withdrawal (cell viability, MTT)” value in the data set with PC12 cells [3] is recorded as “rescued PC12 cells from the apoptosis evoked by serum withdrawal”.

For `OC[C@H]1O[C@@H](n2cnc3c(NCCc4c[nH]c5ccccc45)ncnc32)[C@H](O)[C@@H]1O` [Compound 6, N^6-(3-Indolylethyl)adenosine], the “Binding with / activity against ENT1” value in data set [1] is recorded as “sub-micromolar range”. Further, the “Binding with A2AR, result in words” value at human A2A receptor is listed as “low micromolar”. The “Binding affinity to A2AR of compound 6 relative to compound 11” value on human A2A receptor (ratio of Ki values) is reported as 10 fold. For the same compound, in the data set on PC12 cells [3], the “Rescue of PC12 cells from apoptosis evoked by serum withdrawal (cell viability, MTT)” value was “rescued PC12 cells from the apoptosis evoked by serum withdrawal equally as well as 1”.
